Bounds are passed on as bounds.

The target of assay [1] is Bcr-abl T315I (Ba/F3.p210^T315I cells) (Homo sapiens, UniProt P00519, T315I, cells depend on it). The assay can be described thus: Proliferation assay (MTT), T315I mutant Bcr-abl expressing Ba/F3 cells. The assay is classed as cell-based, murine. The following applies: 48 h, drug concentrations 0.005-10 μM. From the text:
Wild type Bcr-abl expressing 32D (32D.p210) and Ba/F3 (Ba/F3.p210) cells, and mutant Bcr-abl expressing cell lines Ba/F3.p210^G250E, Ba/F3.p210^E255V, Ba/F3.p210^T315I, Ba/F3.p210^F317L and Ba/F3.p210^M351T, as well as Ba/F3 cells transformed with Flt-3-ITD kinase. Additional assays included Ba/F3 cells expressing the fusion protein kinases TEL-PDGFRβ, TEL-JAK1, NPM-ALK, TEL-cKit, Tel-Bmx, Tel-FGR3, Tel-Lck and Ba/F3.TPR-met cells. All the above cell lines were maintained in RPMI-1640 medium with L-Glutamine, 10% FBS and 1 mg/ml geneticin (Gibco).
(§1) Cells (0.3-0.6×10^6/ml) were plated in duplicate or triplicate in 96-well plates containing increasing drug concentrations (0.005-10 μM). After incubation at 37° C. in 5% CO2 for 48 h, the effect of the compounds on cell viability was determined by MTT (Promega) colorimetric dye reduction method. Inhibition of cell proliferation was calculated as a percentage of growth of DMSO treated cells, and IC50 values were determined with Microsoft Excel XLfit3.

Assay [2] has as its system Ba/F3 cells (IL-3 dependent murine pro-B cell line). The assay can be described thus: Proliferation assay (MTT), parental Ba/F3 cells. The assay is classed as cell-based. The following applies: Mus musculus, 48 h, drug concentrations 0.005-10 μM, read-out: BaF3. How it is done:
Interleukin-3 (IL-3) dependent murine pro-B cell line, Ba/F3, and murine myeloid precursor cell line, 32D, were maintained in RPMI-1640 medium supplemented with L-Glutamine, 10% FBS and 10 U/ml recombinant murine IL-3 (Roche). Mo7e human megakarioblastic cell line was grown in RPMI-1640 medium supplemented with L-Glutamine, 20% FBS and 5 ng/ml recombinant human granulocyte macrophage cell stimulating factor (GM-CSF) (R&D Systems) or 200 ng/ml stem cell factor (SCF) (Biosource).
as §1

As to `FC(F)(F)Oc1ccc(Nc2cc(-n3ccnc3NCCN3CCOCC3)ncn2)cc1`, the IC50 in assay [1] and in assay [2] was greater than 10 µM each time.

Consider `CC(=O)Nc1cccc(-c2ncnc(Nc3ccc(OC(F)(F)F)cc3)c2C)c1`, for which the IC50 in assay [1] and in assay [2] was greater than 10 µM throughout.

Turning to `Cc1nc(-c2cc(Nc3ccc(OC(F)(F)F)cc3)ncn2)cs1`, the IC50 in assay [1] and in assay [2] was greater than 10 µM in each case.

For the compound `COc1cccc2cc(-c3ncnc(Nc4ccc(OC(F)(F)F)cc4)c3C)ccc12`, the IC50 in assay [1] and in assay [2] was greater than 10 µM throughout.

For the compound `O=C(NCCN1CCOCC1)c1cc2c(Nc3ccc(OC(F)(F)F)cc3)ncnc2s1` [drawing 332], the IC50 in assay [1] is greater than 10 µM.

On to `Cc1c(Nc2ccc(OC(F)(F)F)cc2)ncnc1-c1ccc(CN)cc1`, for which the IC50 in assay [1] and in assay [2] was greater than 10 µM throughout.

Consider `CN(C)C1CCN(Cc2cc3c(Nc4ccc(OC(F)(F)F)cc4)ncnc3s2)C1` (stereo not drawn), for which the IC50 in assay [1] and in assay [2] was greater than 10 µM throughout.

For `Cc1c(Nc2ccc(OC(F)(F)F)cc2)ncnc1-c1cnn(-c2ccccc2)c1C`, the IC50 in assay [1] turned out to be 5.24 µM; in assay [2], 8.85 µM.

With `FC(F)(F)Oc1ccc(Nc2cc(-c3cn[nH]c3)ncn2)cc1`, the IC50 in assay [1] is roughly 0.46 µM; in assay [2] it was greater than 10 µM.

Regarding `CN1CCN(C(=O)c2cc3c(Nc4ccc(OC(F)(F)F)cc4)ncnc3s2)CC1`, the IC50 stood at 1.25 µM in assay [1] and 2.69 µM in assay [2].

Consider `Cc1cc2c(Nc3ccc(OC(F)(F)F)cc3)ncnc2s1`, for which the IC50 in assay [1] and in assay [2] was greater than 10 µM throughout.

On to `CNS(=O)(=O)c1ccc(-c2ncnc(Nc3ccc(OC(F)(F)F)cc3)c2C)cc1`, for which the results for the IC50 in assay [1] and in assay [2] were 2.13 µM and 2.5 µM, respectively.

Consider `Cc1c(-c2cc(Nc3ccc(OC(F)(F)F)cc3)ncn2)cnn1-c1ccccc1`, for which the IC50 in assay [1] is 6.23 µM; in assay [2], greater than 10 µM.

For the compound `CCNC(=O)c1cc2c(Nc3ccc(OC(F)(F)F)cc3)ncnc2s1`, the IC50 in assay [1] and in assay [2] was greater than 10 µM throughout.

Take `CCNS(=O)(=O)c1ccc(-c2cc(Nc3ccc(OC(F)(F)F)cc3)ncn2)cc1`: the IC50 in assay [1] is 1.85 µM; in assay [2], greater than 10 µM.

Regarding `O=C(c1cc2c(Nc3ccc(OC(F)(F)F)cc3)ncnc2s1)N1CCN(c2cccc(C(F)(F)F)c2)CC1`, the IC50 turned out to be 1.92 µM in assay [1] and 4.55 µM in assay [2].

On to `NS(=O)(=O)c1ccc(-c2cc(Nc3ccc(OC(F)(F)F)cc3)ncn2)cc1`, for which the results for the IC50 in assay [1] and in assay [2] were 1.05 µM and greater than 10 µM, respectively.

In the case of `FC(F)(F)Oc1ccc(Nc2ncnc3sccc23)cc1`, the IC50 in assay [1] and in assay [2] was greater than 10 µM throughout.

As to `FC(F)(F)Oc1ccc(Nc2cc(-c3cnn(Cc4ccccc4)c3)ncn2)cc1`, the IC50 in assay [1] was 1.3 µM; in assay [2] it was greater than 10 µM.

Consider `CCS(=O)(=O)n1cc(-c2cc(Nc3ccc(OC(F)(F)F)cc3)ncn2)cn1`, for which the IC50 was 4.25 µM in assay [1] and greater than 10 µM in assay [2].

For the compound `Cc1c(Nc2ccc(OC(F)(F)F)cc2)ncnc1-c1cccc2[nH]ccc12`, the IC50 in assay [1] and in assay [2] was greater than 10 µM throughout.

`CS(=O)(=O)Nc1ccc(-c2cc(Nc3ccc(OC(F)(F)F)cc3)ncn2)cc1`: the IC50 in assay [1] was determined as 0.6 µM; in assay [2] it was 2.21 µM.

On to `O=Cc1cc(-c2cc(Nc3ccc(OC(F)(F)F)cc3)ncn2)ccc1F`, for which the IC50 in assay [1] came to 5.84 µM; in assay [2] it was 4.12 µM.

For the compound `FC(F)(F)Oc1ccc(Nc2cc(-c3cnn(Cc4ccncc4)c3)ncn2)cc1`, the IC50 in assay [1] was determined as 4 µM; in assay [2], 7.3 µM.

Regarding `CCN(CC)S(=O)(=O)c1ccc(-c2cc(Nc3ccc(OC(F)(F)F)cc3)ncn2)cc1`, the IC50 in assay [1] was determined as 3.88 µM; in assay [2], 8.85 µM.

For `Cc1c(Nc2ccc(OC(F)(F)F)cc2)ncnc1-c1cccc(C(=O)O)c1`, the IC50 in assay [1] and in assay [2] was greater than 10 µM in each case.

For the compound `FC(F)(F)Oc1ccc(Nc2cc(-n3ccnc3Nc3ccc(OC(F)(F)F)cc3)ncn2)cc1`, the IC50 in assay [1] and in assay [2] was greater than 10 µM each time.

With `FC(F)(F)Oc1ccc(Nc2cc(-c3ccc4[nH]ccc4c3)ncn2)cc1`, the IC50 in assay [1] is 8.71 µM; in assay [2] it was greater than 10 µM.

Turning to `O=C(O)c1cc2c(Nc3ccc(OC(F)(F)F)cc3)ncnc2s1`, the IC50 in assay [1] and in assay [2] was greater than 10 µM throughout.

Take `FC(F)(F)Oc1ccc(Nc2cc(-c3cccc4sccc34)ncn2)cc1`: the IC50 in assay [1] turned out to be 3.74 µM; in assay [2], 3.06 µM.

For the compound `FC(F)(F)Oc1ccc(Nc2ncnc(NCCN3CCOCC3)c2Br)cc1`, the IC50 in assay [1] and in assay [2] was greater than 10 µM in each case.

With `COc1ccc(C(=O)Nc2ccc(-c3cc(Nc4ccc(OC(F)(F)F)cc4)ncn3)cc2)cc1`, the IC50 in assay [1] is greater than 10 µM; in assay [2], 9.22 µM.

With `O=C(c1cc2c(Nc3ccc(OC(F)(F)F)cc3)ncnc2s1)N1CCC[C@H]1CO`, the IC50 in assay [1] worked out at 1.21 µM; in assay [2], 3.66 µM.

As for `Cc1c(Nc2ccc(OC(F)(F)F)cc2)ncnc1-c1ccc(-c2ccccc2)cc1`, the IC50 in assay [1] and in assay [2] was greater than 10 µM each time.

In the case of `FC(F)(F)Oc1ccc(Nc2cc(-c3cccc4c3oc3ccccc34)ncn2)cc1`, the IC50 was 4.6 µM in assay [1] and greater than 10 µM in assay [2].

`CC(C)Cn1cc(-c2cc(Nc3ccc(OC(F)(F)F)cc3)ncn2)cn1`: the IC50 in assay [1] is 1.55 µM; in assay [2] it was greater than 10 µM.

Consider `O=c1cc(-c2cc(Nc3ccc(OC(F)(F)F)cc3)ncn2)cc[nH]1`, for which the IC50 in assay [1] and in assay [2] was greater than 10 µM in each case.

In the case of `CCCC(C)S(=O)(=O)Nc1ccc(-c2cc(Nc3ccc(OC(F)(F)F)cc3)ncn2)cc1` (stereo not drawn), the IC50 came out at 1.66 µM in assay [1] and 3.8 µM in assay [2].

For `Cc1ccc(S(=O)(=O)Nc2ccc(-c3ncnc(Nc4ccc(OC(F)(F)F)cc4)c3C)cc2)cc1`, the IC50 in assay [1] and in assay [2] was greater than 10 µM throughout.

Consider `FC(F)(F)Oc1ccc(Nc2cc(-n3ccc4cccnc43)ncn2)cc1`, for which the IC50 in assay [1] and in assay [2] was greater than 10 µM each time.

Regarding `Cc1c(Nc2ccc(OC(F)(F)F)cc2)ncnc1-c1cccc(C(N)=O)c1`, the IC50 in assay [1] and in assay [2] was greater than 10 µM in each case.

In the case of `FC(F)(F)Oc1ccc(Nc2cc(-c3c[nH]c4ccccc34)ncn2)cc1`, the IC50 in assay [1] was 9.28 µM; in assay [2], greater than 10 µM.

For `Cc1ccc(NC(=O)c2ccccc2)cc1Nc1nccn1-c1cc(Nc2ccc(OC(F)(F)F)cc2)ncn1`, the IC50 in assay [1] and in assay [2] was greater than 10 µM throughout.

For `O=C(NCCO)c1cc2c(Nc3ccc(OC(F)(F)F)cc3)ncnc2s1` [N-(2-hydroxyethyl)-4-(4-(trifluoromethoxy)phenylamino)thieno[2,3-d]pyrimidine-6-carboxamide], the IC50 in assay [1] and in assay [2] was greater than 10 µM in each case.

Consider `Nc1cc(C2CC2)n(-c2cc(Nc3ccc(OC(F)(F)F)cc3)ncn2)n1`, for which the IC50 in assay [1] and in assay [2] was greater than 10 µM in each case.

In the case of `O=S(=O)(c1ccc(-c2cc(Nc3ccc(OC(F)(F)F)cc3)ncn2)cc1)N1CCCCC1`, the results for the IC50 in assay [1] and in assay [2] were 1.41 µM and greater than 10 µM, respectively.

In the case of `O=C(NCCN1CCOCC1)c1cc2c(Nc3ccc(OC(F)(F)F)cc3)ncnc2s1` [drawing 343], the IC50 in assay [1] and in assay [2] was greater than 10 µM in each case.

For the compound `CN(C)C1CCN(C(=O)c2cc3c(Nc4ccc(OC(F)(F)F)cc4)ncnc3s2)C1` (stereo not drawn), the IC50 in assay [1] and in assay [2] was greater than 10 µM throughout.

`COC(=O)c1cc2c(Nc3ccc(OC(F)(F)F)cc3)ncnc2s1`: the IC50 in assay [1] and in assay [2] was greater than 10 µM in each case.

With `O=S(=O)(c1ccc(-c2cc(Nc3ccc(OC(F)(F)F)cc3)ncn2)cc1)N1CCOCC1`, the figures for the IC50 in assay [1] and in assay [2] were 2.63 µM and greater than 10 µM, respectively.

As to `COc1cccc2cc(-c3cc(Nc4ccc(OC(F)(F)F)cc4)ncn3)ccc12`, the IC50 in assay [1] and in assay [2] was greater than 10 µM each time.

Take `FC(F)(F)Oc1ccc(Nc2cc(-c3cc(Nc4ccc(OC(F)(F)F)cc4)ncn3)ncn2)cc1`: the figures for the IC50 in assay [1] and in assay [2] were 7 µM and greater than 10 µM, respectively.

Regarding `CN1CCN(c2cc(-c3cc(Nc4ccc(OC(F)(F)F)cc4)ncn3)ccn2)CC1`, the IC50 in assay [1] turned out to be 0.386 µM; in assay [2], 0.71 µM.

Take `Cc1ccc(S(=O)(=O)Nc2ccc(-c3cc(Nc4ccc(OC(F)(F)F)cc4)ncn3)cc2)cc1`: the IC50 in assay [1] and in assay [2] was greater than 10 µM in each case.

For `N#CCc1cccc(-c2cc(Nc3ccc(OC(F)(F)F)cc3)ncn2)c1`, the IC50 in assay [1] is 3.39 µM; in assay [2] it was 8.82 µM.

With `FC(F)(F)Oc1ccc(Nc2cc(-c3cccc4[nH]ccc34)ncn2)cc1`, the IC50 was 6.67 µM in assay [1] and greater than 10 µM in assay [2].

On to `O=C(c1cc2c(Nc3ccc(OC(F)(F)F)cc3)ncnc2s1)N1CCC(O)CC1`, for which the IC50 in assay [1] and in assay [2] was greater than 10 µM throughout.

For `OCCn1ccc2c(Nc3ccc(OC(F)(F)F)cc3)ncnc21`, the IC50 in assay [2] is greater than 10 µM.

Source of the values: patent publication US9670214B2, “Small molecule myristate inhibitors of Bcr-abl and methods of use” (DANA-FARBER CANCER INSTITUTE, INC., priority 2007, dated 2017).
